This note sets out measurements from patent US10647680B2, “Urea compound, preparation method therefor and medical use thereof” (Ancureall Pharmaceutical (Shanghai) Co., Ltd., priority 2016, dated 2020).

Where only a bound is given, the exact number is not on record here.

In assay [1] the test system is MOLM-13 (FLT3 ITD+/− mutant type). Nature of the assay: In vitro growth inhibition (GI50), MOLM-13. The assay is classed as cell-based, human. The note with it: for GI50: Homo sapiens, MOLM-13, Cell lines of leukemia, read-out: GI 50 MOLM-13 FLT3 (ITD+/−); for inhibition activity against the growth of MOLM-13 cells compared with AC220: compared with the control compound AC220.

The test system of assay [2] is K562 (FLT3 negative expression, positive expression of BCR-ABL fusion protein). As to the kind of experiment: In vitro growth inhibition (GI50), K562. It counts as cell-based. The note with it: Homo sapiens, Cell lines of leukemia, read-out: GI 50 K562 BCR-ABL.
Assay [3] concerns Kasumi-1 (c-Kit N822K mutant type). Nature of the assay: In vitro growth inhibition (GI50), Kasumi-1. The assay is classed as cell-based. As to conditions: Homo sapiens, Cell lines of leukemia, read-out: GI 50 Kasumi-1 Kit (N822K). The gist of the method: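 After 3–5 days of treatment (top concentration 5,000 nM, serially diluted 2- or 10-fold to 0.01 nM, solvent ≤1%), viability was read by CCK8 at OD450. Growth rate was normalised to the time-zero and solvent-control wells, and GI50 was derived from the curve. Cultures in RPMI1640 + 10% FBS.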

On to `CC(C)(C)c1cc(NC(=O)Nc2ccc(-n3cnc4cc(O)ccc43)cc2)no1` [Compound 4, 1-(5-tert-butyl-isoxazol-3-yl)-3-[4-(5-hydroxy-benzimidazol-1-yl)-phenyl]-urea], for which the GI50 in assay [1] was 0.1 to 1 nM; in assay [2], 100 to 1000 nM; in assay [3], 100 to 1000 nM.
Take `CC(C)(C)c1cc(NC(=O)Nc2ccc(-n3cnc4cc(OCCO)ccc43)cc2)no1` [Compound 11, 1-(5-tert-butyl-isoxazol-3-yl)-3-{4-[5-(2-hydroxy-ethoxyl)-benzimidazol-1-yl]-phenyl]-urea]: the GI50 in assay [1] is 0.01 to 0.1 nM; in assay [2] it was greater than 1000 nM; in assay [3], greater than 1000 nM. For the same compound, the “inhibition activity against the growth of MOLM-13 cells compared with AC220” value (“inhibition activity … compared with AC220” for short) in assay [1] is recorded as “stronger inhibition activity”.
As to `CC(C)(C)c1cc(NC(=O)Nc2ccc(-n3cnc4cc(OCCN5CCOCC5)ccc43)cc2)no1` [Compound 16, 1-(5-tert-butyl-isoxazol-3-yl)-3-{4-[5-(2-morpholin-4-yl-ethoxyl)-benzimidazol-1-yl]-phenyl}-urea], the GI50 in assay [1] is 0.1 to 1 nM; in assay [2] it was greater than 1000 nM; in assay [3], greater than 1000 nM.
`CC(C)(C)c1cc(NC(=O)Nc2ccc(-n3cnc4ccc(OCCN5CCOCC5)cc43)cc2)no1` [Compound 27, 1-(5-tert-butyl-isoxazol-3-yl)-3-{4-[6-(2morpholin-4-yl-ethoxyl)-benzimidazol-1-yl]-phenyl}-urea]: the GI50 in assay [1] was 0.1 to 1 nM; in assay [2], greater than 1000 nM; in assay [3], greater than 1000 nM.
Turning to `CC(C)(C)c1cc(NC(=O)Nc2ccc(-n3cnc4ccccc43)cc2)[nH]n1` [Compound 68, 1-(4-benzimidazol-1-yl-phenyl)-3-(5-tert-butyl-2H-pyrazol-3-yl)-urea], the GI50 is 0.1 to 1 nM in assay [1], greater than 1000 nM in assay [2] and greater than 1000 nM in assay [3].
For `COc1ccc2c(c1)ncn2-c1ccc(NC(=O)Nc2cc(C(C)(C)C)n[nH]2)cc1` [Compound 71, 1-(5-tert-butyl-2H-pyrazol-3-yl)-3-[4-(5-methoxyl-benzimidazol-1-yl)-phenyl]-urea], the GI50 in assay [1] was 0.01 to 0.1 nM; in assay [2], greater than 1000 nM; in assay [3] it was greater than 1000 nM. In addition, the “inhibition activity … compared with AC220” value in assay [1] is “stronger inhibition activity”.
Consider `COCCOc1ccc2c(c1)ncn2-c1ccc(NC(=O)Nc2cc(C(C)(C)C)n[nH]2)cc1` [Compound 77, 1-(5-tert-butyl-2H-pyrazol-3-yl)-3-{4-[5-(2-methoxyl-ethoxyl)-benzimidazol-1-yl]-phenyl}-urea], for which the GI50 is 0.01 to 0.1 nM in assay [1], greater than 1000 nM in assay [2] and greater than 1000 nM in assay [3]. Besides, the “inhibition activity … compared with AC220” value in assay [1] was “stronger inhibition activity”.
For `CC(C)(C)c1cc(NC(=O)Nc2ccc(-n3cnc4cc(OCCO)ccc43)cc2)[nH]n1` [Compound 79, 1-(5-tert-butyl-2H-pyrazol-3-yl)-3-{4-[5-(2-hydroxy-ethoxyl)-benzimidazol-1-yl]-phenyl]urea], the GI50 in assay [1] was 0.1 to 1 nM; in assay [2], greater than 1000 nM; in assay [3], greater than 1000 nM. For the same compound, the “inhibition activity … compared with AC220” value in assay [1] is recorded as “stronger inhibition activity”.
For `CC(C)(C)c1cc(NC(=O)Nc2ccc(-n3cnc4cc(OCCN5CCOCC5)ccc43)cc2)[nH]n1` [Compound 89, 1-(5-tert-butyl-2H-pyrazol-3-yl)-3-{4-[5-(2-morpholin-4-yl-ethoxyl)-benzimidazol-1-yl]-phenyl}-urea], the GI50 in assay [1] is 0.1 to 1 nM; in assay [2] it was greater than 1000 nM; in assay [3] it was 100 to 1000 nM. The “inhibition activity … compared with AC220” value in assay [1] was “stronger inhibition activity”.
Turning to `CC(C)(C)c1cc(N)n(C(=O)Nc2ccc(-n3cnc4ccccc43)cc2)n1` [Compound 116, 5-amino-3-tert-butyl-pyrazol-1-carboxylic acid (4-benzimidazol-1-yl-phenyl)-amide], the GI50 in assay [1] was 10 to 100 nM; in assay [2], greater than 1000 nM; in assay [3], greater than 1000 nM.
